Here are results for eleven compounds from ChEMBL document CHEMBL1201862, “PubChem BioAssay data set” (2004).

Common to all, as to test: NCI tumour cell line growth inhibition, 48 h
Assay [1] relates to TK-10.
The test system of assay [2] is SNB-75.
Assay [3] concerns OVCAR-5.
Assay [4] has as its system SF-295.
Assay [5] relates to MCF7.
Assay [6] concerns CAKI-1.
Assay [7] concerns UO-31.
The test system of assay [8] is NCI-H23.
Assay [9] relates to OVCAR-8.
The test system of assay [10] is HCC 2998.
Assay [11] relates to A549.
The subject of assay [12] is COLO 205.
For assay [13], the system named is SW-620.
The test system of assay [14] is HOP-92.
The subject of assay [15] is DU-145.
Assay [16] concerns MDA-MB-435.
For assay [17], the system named is RPMI-8226.
Assay [18] concerns K562.
Assay [19] deals with SR.

Each structure is given as a SMILES string.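 Exposure lasted 48 hours, with cells grown in 96-well plates and compounds tested at five concentrations. GI50 marks 50% less growth.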 Active and inactive are the calls of the source. Cut-off read from the data, not from the text of the source: active = GI50 up to about 1.1 µM and inactive = higher.

For `Cc1cc(Br)cc(C)c1NC(=O)C(=O)C1C(=O)C(CC2C(=O)c3ccccc3C2=O)C(=O)CC1(C)C` (configuration not stated), the GI50 in assay [1] was > 100 µM (inactive); in [2], > 100 µM (inactive); in assay [3], > 100 µM (inactive); in [4] it was > 100 µM (inactive); in assay [5] it was 18.6 µM (inactive); in [6] it was > 100 µM (inactive). Further, the GI50 in assay [7] was 16.8 µM (inactive); in [8], 84.1 µM (inactive); in assay [9], > 100 µM (inactive); in [10] it was > 100 µM (inactive); in assay [11], 79.6 µM (inactive); in assay [12], > 100 µM (inactive). Besides, the GI50 in [13] was > 100 µM (inactive); in assay [14], 55.3 µM (inactive); in assay [15] it was > 100 µM (inactive); in assay [16] it was > 100 µM (inactive).
As for `COC(CN(C=O)[C@@H](c1ccc(Cl)cc1)c1cc2ccccc2o1)OC`, the GI50 is 15.5 µM (inactive) in assay [1]; 22.9 µM (inactive) in [2]; 15.8 µM (inactive) in assay [3]; 16.9 µM (inactive) in [4]; 15.5 µM (inactive) in assay [5]; 15.8 µM (inactive) in assay [6]. Besides, the GI50 in assay [7] was 16.5 µM (inactive); in [8], 18.5 µM (inactive); in assay [17], 16 µM (inactive); in assay [9] it was 16 µM (inactive); in [18], 24.4 µM (inactive); in [11], 21 µM (inactive). The GI50 is 17.6 µM (inactive) in assay [12]; 16.6 µM (inactive) in [13]; 16.7 µM (inactive) in assay [14]; 14.8 µM (inactive) in assay [15]; 18.5 µM (inactive) in assay [16].
For `CCN(CC(O)COc1ccc2c(c1)[n+]([O-])nc(N)[n+]2[O-])C(C)=O` (configuration not stated), the GI50 is > 100 µM (inactive) in assay [1]; 38.9 µM (inactive) in [2]; > 100 µM (inactive) in assay [3]; > 100 µM (inactive) in assay [4]; 91 µM (inactive) in assay [5]; > 100 µM (inactive) in [6]. The GI50 in [7] was > 100 µM (inactive); in assay [8], 91.2 µM (inactive); in [17] it was > 100 µM (inactive); in [9], 59.3 µM (inactive); in assay [18], 79.6 µM (inactive); in assay [11], > 100 µM (inactive). For the same compound, the GI50 in assay [12] was 3.7 µM (inactive); in assay [13], > 100 µM (inactive); in assay [19], > 100 µM (inactive); in assay [15], > 100 µM (inactive); in assay [16], > 100 µM (inactive).
For the compound `O=c1/c(=C/c2ccc(-c3ccc(Cl)cc3Cl)o2)sc2n1[C@@H](c1ccc3c(c1)OCO3)C=C(c1cc(F)c(Cl)cc1Cl)N=2`, the GI50 in assay [1] was 7.78 µM (inactive); in [2], > 100 µM (inactive); in assay [3], 58.7 µM (inactive); in [4] it was 40.7 µM (inactive); in [5], 26 µM (inactive); in assay [6] it was > 100 µM (inactive). For the same compound, the GI50 in [7] was 31.7 µM (inactive); in assay [8], 38.5 µM (inactive); in [17], 26.1 µM (inactive); in assay [9], 42 µM (inactive); in assay [18], 35.2 µM (inactive); in assay [11], 46.1 µM (inactive). For the same compound, the GI50 in assay [12] is 38.7 µM (inactive); in assay [13], 35.8 µM (inactive); in [14], 31.1 µM (inactive); in assay [15] it was 63.7 µM (inactive); in [16] it was 33.2 µM (inactive).
For `COc1ccc(N2C(=O)CC(=O)N(C(=O)COc3ccc(OCC(=O)N4C(=O)CC(=O)N(c5ccc(OC)cc5)C4=S)cc3)C2=S)cc1`, the GI50 in assay [1] was 44.3 µM (inactive); in assay [2] it was 54 µM (inactive); in assay [3], > 100 µM (inactive); in [4], 36.8 µM (inactive); in assay [5], 31.1 µM (inactive); in [6] it was 0.718 µM (active). The GI50 in assay [7] is 42.5 µM (inactive); in assay [8], 38.1 µM (inactive); in assay [17] it was 19.6 µM (inactive); in assay [18], 41.4 µM (inactive); in assay [10], 32.3 µM (inactive); in [11], 35.8 µM (inactive). The GI50 is 18.9 µM (inactive) in assay [12]; 40.1 µM (inactive) in [13]; 40.9 µM (inactive) in assay [14]; 49.9 µM (inactive) in assay [15]; 36.9 µM (inactive) in assay [16].
Turning to `COC(=O)c1ccccc1C#CC#Cc1ccccc1C(=O)OC`, the GI50 in [1] is > 10 µM (inactive); in assay [3], > 10 µM (inactive); in assay [4], > 10 µM (inactive); in assay [5] it was 0.611 µM (active); in assay [6] it was > 10 µM (inactive); in assay [7], > 10 µM (inactive). Also, the GI50 in [8] is > 10 µM (inactive); in [17] it was > 10 µM (inactive); in assay [9], 6.21 µM (inactive); in assay [18], 8.57 µM (inactive); in assay [10], > 10 µM (inactive); in assay [11], > 10 µM (inactive). The GI50 in assay [12] is 1.69 µM (inactive); in assay [13], > 10 µM (inactive); in assay [19], > 10 µM (inactive); in assay [15] it was > 10 µM (inactive); in assay [16] it was > 10 µM (inactive).
Take `COc1cc(C2c3cc4c(cc3OC(C)(O)C2C)OCO4)cc(OC)c1OC` (configuration not stated): the GI50 in assay [3] was > 100 µM (inactive); in [4] it was 0.304 µM (active); in [5], 0.375 µM (active); in assay [6], 12.2 µM (inactive); in [7] it was 0.857 µM (active); in assay [8] it was 0.745 µM (active). Further, the GI50 in assay [17] was 0.237 µM (active); in [9], 0.217 µM (active); in assay [18], 0.274 µM (active); in assay [10], 0.646 µM (active); in [11] it was 0.197 µM (active); in assay [12], 0.49 µM (active). Also, the GI50 in [13] was 0.349 µM (active); in [19], 0.379 µM (active); in assay [15] it was 0.456 µM (active); in assay [16] it was 0.118 µM (active).
`C/C(=C\c1ccccn1)c1ccccn1`: the GI50 in assay [1], in assay [2], in assay [3], in assay [4], in [5] and in assay [6] was > 100 µM (inactive) in each case. For the same compound, the GI50 in [7], in assay [8], in assay [17], in [9], in [18] and in assay [10] was > 100 µM (inactive) in each case. Also, the GI50 in assay [11], in [12], in [14], in [15] and in assay [16] was > 100 µM (inactive) throughout.
For `Cc1csc2nc(-c3cccc([N+](=O)[O-])c3)c(/C=N/N=C(N)N)n12`, the GI50 in assay [1] was 1.78 µM (inactive); in [2] it was 1.75 µM (inactive); in assay [3] it was 1.63 µM (inactive); in [4] it was 1.69 µM (inactive); in assay [5] it was 1.82 µM (inactive); in assay [6] it was 2.73 µM (inactive). Further, the GI50 was 1.39 µM (inactive) in assay [7]; 1.71 µM (inactive) in [8]; 1.86 µM (inactive) in assay [17]; 1.74 µM (inactive) in assay [9]; 1.98 µM (inactive) in [18]; < 0.01 µM (active) in assay [10]. The GI50 is 1.72 µM (inactive) in assay [11]; 1.78 µM (inactive) in assay [12]; 1.71 µM (inactive) in assay [13]; 0.0968 µM (active) in assay [14]; 2.19 µM (inactive) in [15]; 1.66 µM (inactive) in [16].
`COC1O[C@H]2[C@H]3[C@@H]1[C@@H](OS(=O)(=O)c1ccc(C)cc1)C(=O)N3C[C@H]2O` (some centres not stated): the GI50 in assay [1], in assay [3], in assay [4], in assay [5], in assay [6] and in [7] was > 100 µM (inactive) each time. In addition, the GI50 in assay [8] is > 100 µM (inactive); in [17], 61.2 µM (inactive); in assay [9], > 100 µM (inactive); in assay [18], 65.9 µM (inactive); in [10], > 100 µM (inactive); in assay [11] it was > 100 µM (inactive). Moreover, the GI50 in assay [12], in assay [13], in assay [19], in [15] and in assay [16] was > 100 µM (inactive) each time.
Turning to `COC(=O)[C@]1(c2cc3ccccc3[nH]2)CC2CN(CC(=O)N(C)OC)C1CC2(OC)OC` (some centres not stated), the GI50 was > 100 µM (inactive) in [1]; 63.8 µM (inactive) in assay [2]; 52.2 µM (inactive) in assay [3]; > 100 µM (inactive) in assay [4]; 32.8 µM (inactive) in [5]; 20.7 µM (inactive) in [6]. In addition, the GI50 was 40.2 µM (inactive) in assay [7]; 36 µM (inactive) in [8]; 14.7 µM (inactive) in [17]; 39.3 µM (inactive) in assay [9]; 24.9 µM (inactive) in assay [18]; > 100 µM (inactive) in [10]. The GI50 was 47.1 µM (inactive) in assay [11]; 83.6 µM (inactive) in [12]; 36.4 µM (inactive) in assay [13]; 87.5 µM (inactive) in assay [14]; 43.5 µM (inactive) in [15]; 27.5 µM (inactive) in assay [16].
